# Source: ChEMBL document CHEMBL4507281, “Data for DCP probe BI-4394” (2021)
# Tests used:
# Conditions in all cases: Compound concentration 10.0 uM
# [1] = target: D(4) dopamine receptor (Homo sapiens) (UniProt P21917)
# [2] = target: Muscarinic acetylcholine receptor M2 (Homo sapiens) (UniProt P08172)
# [3] = target: Alpha-1A adrenergic receptor (Homo sapiens) (UniProt P35348)
# [4] = target: Beta-1 adrenergic receptor (Homo sapiens) (UniProt P08588)
# [5] = target: Tyrosine-protein kinase ABL1 (Homo sapiens) (UniProt P00519)
# [6] = target: Casein kinase II subunit alpha (Homo sapiens) (UniProt P68400)
# [7] = target: Dual specificity tyrosine-phosphorylation-regulated kinase 3 (Homo sapiens) (UniProt O43781)
# [8] = target: Epidermal growth factor receptor (Homo sapiens) (UniProt P00533)
# [9] = target: Ephrin type-A receptor 2 (Homo sapiens) (UniProt P29317)
# [10] = target: Glycogen synthase kinase-3 beta (Homo sapiens) (UniProt P49841)
# Chain of Glycogen synthase kinase-3 beta (Homo sapiens) (P49841 whole entry, looked up): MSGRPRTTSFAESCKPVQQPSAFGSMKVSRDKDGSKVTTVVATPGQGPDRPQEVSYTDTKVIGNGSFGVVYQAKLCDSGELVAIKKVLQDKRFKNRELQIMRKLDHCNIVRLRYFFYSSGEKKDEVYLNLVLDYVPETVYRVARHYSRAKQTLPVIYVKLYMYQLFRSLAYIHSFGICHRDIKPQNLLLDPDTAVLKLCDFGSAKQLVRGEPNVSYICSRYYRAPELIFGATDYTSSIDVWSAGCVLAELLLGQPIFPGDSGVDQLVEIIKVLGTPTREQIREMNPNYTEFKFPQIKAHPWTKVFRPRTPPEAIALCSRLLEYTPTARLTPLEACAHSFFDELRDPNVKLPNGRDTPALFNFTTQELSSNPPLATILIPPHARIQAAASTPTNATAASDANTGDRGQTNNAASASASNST
# [11] = target: T1, Tyrosine-protein kinase JAK3 (Homo sapiens) (UniProt P52333)
# T1 sequence (whole entry): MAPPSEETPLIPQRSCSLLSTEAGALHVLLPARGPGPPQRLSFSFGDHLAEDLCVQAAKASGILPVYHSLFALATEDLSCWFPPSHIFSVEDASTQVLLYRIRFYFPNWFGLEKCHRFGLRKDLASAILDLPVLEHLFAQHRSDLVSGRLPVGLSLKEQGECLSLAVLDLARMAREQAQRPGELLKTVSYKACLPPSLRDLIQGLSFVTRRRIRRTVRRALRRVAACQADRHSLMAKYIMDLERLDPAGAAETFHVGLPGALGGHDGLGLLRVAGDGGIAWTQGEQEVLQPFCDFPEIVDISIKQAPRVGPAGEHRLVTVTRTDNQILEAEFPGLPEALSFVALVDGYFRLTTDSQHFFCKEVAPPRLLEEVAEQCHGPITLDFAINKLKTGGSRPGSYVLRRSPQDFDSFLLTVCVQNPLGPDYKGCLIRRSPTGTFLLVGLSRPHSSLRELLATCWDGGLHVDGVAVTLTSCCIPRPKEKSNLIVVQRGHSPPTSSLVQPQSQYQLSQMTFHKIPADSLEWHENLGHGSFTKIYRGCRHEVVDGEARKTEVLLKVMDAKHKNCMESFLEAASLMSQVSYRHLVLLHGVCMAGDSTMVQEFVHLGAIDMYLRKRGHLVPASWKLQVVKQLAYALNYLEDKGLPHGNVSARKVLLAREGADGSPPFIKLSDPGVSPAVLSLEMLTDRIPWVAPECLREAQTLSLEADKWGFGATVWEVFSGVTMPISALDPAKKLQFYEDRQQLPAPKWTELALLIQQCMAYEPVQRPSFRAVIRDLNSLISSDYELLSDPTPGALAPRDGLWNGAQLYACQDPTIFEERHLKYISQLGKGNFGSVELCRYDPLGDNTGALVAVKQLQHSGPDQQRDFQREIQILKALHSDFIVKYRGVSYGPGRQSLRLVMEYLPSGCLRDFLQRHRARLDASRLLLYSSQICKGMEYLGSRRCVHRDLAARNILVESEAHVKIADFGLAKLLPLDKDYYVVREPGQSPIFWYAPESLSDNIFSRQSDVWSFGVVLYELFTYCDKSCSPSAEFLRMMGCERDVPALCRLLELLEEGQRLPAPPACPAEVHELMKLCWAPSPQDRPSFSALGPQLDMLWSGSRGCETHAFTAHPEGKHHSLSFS
# [12] = target: Vascular endothelial growth factor receptor 2 (Homo sapiens) (UniProt P35968)
# Chain of Vascular endothelial growth factor receptor 2 (Homo sapiens) (P35968 whole entry): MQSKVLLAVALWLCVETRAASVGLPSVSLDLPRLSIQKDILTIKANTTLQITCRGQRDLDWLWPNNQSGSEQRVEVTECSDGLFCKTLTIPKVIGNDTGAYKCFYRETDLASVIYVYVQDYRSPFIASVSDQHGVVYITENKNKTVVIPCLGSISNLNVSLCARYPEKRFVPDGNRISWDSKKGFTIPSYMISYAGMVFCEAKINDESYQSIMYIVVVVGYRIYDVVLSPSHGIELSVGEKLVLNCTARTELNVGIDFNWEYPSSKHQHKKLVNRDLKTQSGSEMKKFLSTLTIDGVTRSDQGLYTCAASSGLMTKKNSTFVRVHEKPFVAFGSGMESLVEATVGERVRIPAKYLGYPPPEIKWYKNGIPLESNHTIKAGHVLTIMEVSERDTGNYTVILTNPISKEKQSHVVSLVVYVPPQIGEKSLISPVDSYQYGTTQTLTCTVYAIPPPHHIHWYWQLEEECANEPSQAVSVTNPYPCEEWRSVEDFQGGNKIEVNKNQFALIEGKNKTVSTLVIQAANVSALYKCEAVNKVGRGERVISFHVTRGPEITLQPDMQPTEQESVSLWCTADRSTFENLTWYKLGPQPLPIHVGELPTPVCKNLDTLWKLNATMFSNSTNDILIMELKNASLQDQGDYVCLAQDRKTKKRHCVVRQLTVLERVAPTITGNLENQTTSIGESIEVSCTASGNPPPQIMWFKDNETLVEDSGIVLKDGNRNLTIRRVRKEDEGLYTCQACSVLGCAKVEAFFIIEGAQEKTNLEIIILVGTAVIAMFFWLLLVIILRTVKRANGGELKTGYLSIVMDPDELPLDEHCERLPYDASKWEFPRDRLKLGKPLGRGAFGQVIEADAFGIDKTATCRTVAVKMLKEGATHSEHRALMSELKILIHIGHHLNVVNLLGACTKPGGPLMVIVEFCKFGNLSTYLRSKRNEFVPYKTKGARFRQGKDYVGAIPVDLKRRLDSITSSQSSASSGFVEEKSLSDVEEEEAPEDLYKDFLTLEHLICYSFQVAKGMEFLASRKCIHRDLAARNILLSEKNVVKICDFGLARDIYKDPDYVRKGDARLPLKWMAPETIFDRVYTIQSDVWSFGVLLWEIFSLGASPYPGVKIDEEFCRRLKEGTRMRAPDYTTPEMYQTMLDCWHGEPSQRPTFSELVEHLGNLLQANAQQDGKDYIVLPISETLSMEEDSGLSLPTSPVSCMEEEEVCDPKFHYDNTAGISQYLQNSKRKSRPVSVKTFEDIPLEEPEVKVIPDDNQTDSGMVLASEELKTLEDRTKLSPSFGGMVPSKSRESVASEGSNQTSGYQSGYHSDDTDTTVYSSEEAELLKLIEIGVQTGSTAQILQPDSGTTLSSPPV
# [13] = target: Mitogen-activated protein kinase kinase kinase kinase 4 (Homo sapiens) (UniProt O95819)
# [14] = target: Mitogen-activated protein kinase 14 (Homo sapiens) (UniProt Q16539)
# [15] = target: Hepatocyte growth factor receptor (Homo sapiens) (UniProt P08581)
# Chain of Hepatocyte growth factor receptor (Homo sapiens) (P08581 whole entry): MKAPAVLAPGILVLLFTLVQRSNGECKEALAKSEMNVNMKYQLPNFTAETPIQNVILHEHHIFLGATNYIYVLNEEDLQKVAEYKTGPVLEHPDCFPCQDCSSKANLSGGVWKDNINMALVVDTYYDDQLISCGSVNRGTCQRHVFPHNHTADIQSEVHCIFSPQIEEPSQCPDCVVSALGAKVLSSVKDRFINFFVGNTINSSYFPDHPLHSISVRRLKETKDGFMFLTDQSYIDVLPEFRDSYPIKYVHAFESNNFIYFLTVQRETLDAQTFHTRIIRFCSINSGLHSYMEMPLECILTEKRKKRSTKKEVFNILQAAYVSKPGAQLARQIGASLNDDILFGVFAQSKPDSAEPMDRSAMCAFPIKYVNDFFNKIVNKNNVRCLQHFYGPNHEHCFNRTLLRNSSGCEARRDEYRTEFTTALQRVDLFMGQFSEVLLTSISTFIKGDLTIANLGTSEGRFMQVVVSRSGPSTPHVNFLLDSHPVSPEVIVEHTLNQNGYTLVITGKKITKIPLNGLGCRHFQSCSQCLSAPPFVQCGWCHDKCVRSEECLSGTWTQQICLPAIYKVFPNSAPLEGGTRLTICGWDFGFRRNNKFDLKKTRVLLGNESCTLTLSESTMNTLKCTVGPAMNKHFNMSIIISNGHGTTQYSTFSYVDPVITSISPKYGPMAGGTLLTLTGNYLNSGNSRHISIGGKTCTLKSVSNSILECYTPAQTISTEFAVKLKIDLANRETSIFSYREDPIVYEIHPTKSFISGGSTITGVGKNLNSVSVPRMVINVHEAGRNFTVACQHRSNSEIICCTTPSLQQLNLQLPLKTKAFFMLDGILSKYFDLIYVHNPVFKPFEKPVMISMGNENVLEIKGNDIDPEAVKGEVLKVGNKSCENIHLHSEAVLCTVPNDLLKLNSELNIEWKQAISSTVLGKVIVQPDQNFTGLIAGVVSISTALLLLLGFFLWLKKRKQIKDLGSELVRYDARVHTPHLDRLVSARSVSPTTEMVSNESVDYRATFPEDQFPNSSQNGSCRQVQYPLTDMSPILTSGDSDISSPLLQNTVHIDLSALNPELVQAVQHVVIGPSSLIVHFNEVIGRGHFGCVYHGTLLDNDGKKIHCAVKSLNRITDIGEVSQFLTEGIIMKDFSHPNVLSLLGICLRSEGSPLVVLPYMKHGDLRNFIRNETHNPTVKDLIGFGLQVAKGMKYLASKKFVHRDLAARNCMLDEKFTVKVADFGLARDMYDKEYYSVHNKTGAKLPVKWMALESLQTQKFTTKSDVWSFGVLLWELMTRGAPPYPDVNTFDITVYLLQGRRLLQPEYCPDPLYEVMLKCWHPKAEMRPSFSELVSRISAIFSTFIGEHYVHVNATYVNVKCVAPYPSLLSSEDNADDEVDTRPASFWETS
# [16] = target: High affinity nerve growth factor receptor (Homo sapiens) (UniProt P04629)
# Chain of High affinity nerve growth factor receptor (Homo sapiens) (P04629 33-796 limits assumed): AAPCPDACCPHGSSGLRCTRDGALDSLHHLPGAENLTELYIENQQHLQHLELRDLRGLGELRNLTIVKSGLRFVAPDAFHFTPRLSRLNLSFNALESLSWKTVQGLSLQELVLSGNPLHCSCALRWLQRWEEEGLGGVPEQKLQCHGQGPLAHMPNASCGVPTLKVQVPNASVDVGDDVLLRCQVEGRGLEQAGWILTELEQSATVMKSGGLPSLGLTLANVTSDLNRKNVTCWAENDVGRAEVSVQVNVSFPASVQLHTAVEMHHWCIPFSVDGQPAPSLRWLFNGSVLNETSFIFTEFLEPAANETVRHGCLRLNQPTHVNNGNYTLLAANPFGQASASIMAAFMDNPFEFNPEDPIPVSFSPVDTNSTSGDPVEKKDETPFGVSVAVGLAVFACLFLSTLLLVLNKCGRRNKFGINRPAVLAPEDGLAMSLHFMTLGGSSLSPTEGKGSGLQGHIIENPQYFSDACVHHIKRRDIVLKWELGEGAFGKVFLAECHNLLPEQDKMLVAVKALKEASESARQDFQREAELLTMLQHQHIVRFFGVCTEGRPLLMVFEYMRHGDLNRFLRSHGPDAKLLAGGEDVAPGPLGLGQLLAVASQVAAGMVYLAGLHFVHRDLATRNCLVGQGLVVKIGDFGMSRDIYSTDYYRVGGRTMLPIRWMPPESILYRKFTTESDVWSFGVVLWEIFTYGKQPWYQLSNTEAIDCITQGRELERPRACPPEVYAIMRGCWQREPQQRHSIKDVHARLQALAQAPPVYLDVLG
# [17] = target: Serine/threonine-protein kinase PLK1 (Homo sapiens) (UniProt P53350)
# [18] = target: Protein kinase C beta type (Homo sapiens) (UniProt P05771)
# [19] = target: T2, Protein kinase C epsilon type (Homo sapiens) (UniProt Q02156)
# T2 sequence (whole entry): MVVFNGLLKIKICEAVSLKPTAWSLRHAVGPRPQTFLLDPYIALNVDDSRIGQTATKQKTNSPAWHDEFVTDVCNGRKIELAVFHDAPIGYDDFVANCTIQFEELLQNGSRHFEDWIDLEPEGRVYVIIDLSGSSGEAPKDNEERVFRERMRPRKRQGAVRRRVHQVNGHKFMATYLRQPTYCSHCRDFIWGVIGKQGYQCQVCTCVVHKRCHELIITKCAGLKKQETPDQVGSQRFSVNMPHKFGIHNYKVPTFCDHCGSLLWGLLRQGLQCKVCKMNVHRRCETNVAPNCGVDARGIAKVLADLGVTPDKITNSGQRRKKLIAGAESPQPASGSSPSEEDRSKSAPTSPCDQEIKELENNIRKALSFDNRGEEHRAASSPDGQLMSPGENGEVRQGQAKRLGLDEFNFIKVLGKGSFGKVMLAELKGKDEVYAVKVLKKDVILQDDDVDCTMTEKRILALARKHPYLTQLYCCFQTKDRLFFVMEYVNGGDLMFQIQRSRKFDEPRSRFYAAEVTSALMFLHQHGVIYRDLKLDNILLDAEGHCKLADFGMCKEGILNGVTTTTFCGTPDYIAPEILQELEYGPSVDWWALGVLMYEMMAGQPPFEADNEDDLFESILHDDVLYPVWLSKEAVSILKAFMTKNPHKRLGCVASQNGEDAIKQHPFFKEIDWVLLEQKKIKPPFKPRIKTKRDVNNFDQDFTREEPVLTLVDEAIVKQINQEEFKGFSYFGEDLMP
# [20] = target: Tyrosine-protein kinase SYK (Homo sapiens) (UniProt P43405)
# [21] = target: Angiopoietin-1 receptor (Homo sapiens) (UniProt Q02763)
# Chain of D(4) dopamine receptor (Homo sapiens) (P21917 whole entry): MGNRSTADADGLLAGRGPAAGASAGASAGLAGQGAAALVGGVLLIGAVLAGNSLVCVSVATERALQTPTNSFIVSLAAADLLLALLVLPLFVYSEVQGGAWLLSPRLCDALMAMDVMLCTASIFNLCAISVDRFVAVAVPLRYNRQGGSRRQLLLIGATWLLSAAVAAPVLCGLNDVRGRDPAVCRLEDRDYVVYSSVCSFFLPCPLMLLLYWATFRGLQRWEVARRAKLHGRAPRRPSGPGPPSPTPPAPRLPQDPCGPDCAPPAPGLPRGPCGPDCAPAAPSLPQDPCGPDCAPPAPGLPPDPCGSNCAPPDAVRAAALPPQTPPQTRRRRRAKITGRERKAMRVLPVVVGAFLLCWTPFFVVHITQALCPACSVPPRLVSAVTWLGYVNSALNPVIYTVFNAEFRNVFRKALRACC
# Chain of Muscarinic acetylcholine receptor M2 (Homo sapiens) (P08172 whole entry): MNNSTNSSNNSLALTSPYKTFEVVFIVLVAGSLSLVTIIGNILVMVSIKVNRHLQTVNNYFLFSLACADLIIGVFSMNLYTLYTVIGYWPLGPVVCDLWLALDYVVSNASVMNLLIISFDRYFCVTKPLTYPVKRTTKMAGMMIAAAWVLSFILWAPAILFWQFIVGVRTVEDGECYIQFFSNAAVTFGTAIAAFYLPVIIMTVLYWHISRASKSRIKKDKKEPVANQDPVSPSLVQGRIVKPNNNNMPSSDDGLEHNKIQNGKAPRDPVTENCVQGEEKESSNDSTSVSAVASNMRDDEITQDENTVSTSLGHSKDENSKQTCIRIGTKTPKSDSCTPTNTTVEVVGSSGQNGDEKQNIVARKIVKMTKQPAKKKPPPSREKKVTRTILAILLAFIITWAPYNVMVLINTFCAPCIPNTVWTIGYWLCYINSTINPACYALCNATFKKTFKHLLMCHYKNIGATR
compound,measurement,setting,value
Cn1nc(C(=O)NCc2ccc(C(=O)O)cc2)cc1-c1ccc2[nH]ccc2c1 [BI 4395],inhibition,[1],-8.91%
same,inhibition,[2],-8.35%
CCOC(=O)c1cc2cc(-c3cc(C(=O)NCc4ccc(C(=O)O)cc4)nn3C)ccc2[nH]1 [BI 4394],inhibition,[3],-6.15%
same,inhibition,[4],-5.04%
same,residual activity,[5],48%
same,residual activity,[6],89%
same,residual activity,[7],28%
same,residual activity,[8],99%
same,residual activity,[9],85%
same,residual activity,[10],6%
same,residual activity,[11],44%
same,residual activity,[12],17%
same,residual activity,[13],32%
same,residual activity,[14],6%
same,residual activity,[15],43%
same,residual activity,[16],190%
same,residual activity,[17],73%
same,residual activity,[18],97%
same,residual activity,[19],115%
same,residual activity,[20],56%
same,residual activity,[21],85%
